In patent US20230190760A1, “ADVANTAGEOUS THERAPIES FOR DISORDERS MEDIATED BY IKAROS OR AIOLOS” (C4 Therapeutics, Inc., priority 2020, published 2023):

Assays:
[1] = tested on: hematological cancer cell lines; assay: Anti-proliferative activity in hematological cancer cell lines (whole panel); type: cell-based; settings: in multiple cell lines, 96 hours
[2] = tested on: Caspase 3/7 activity in NCIH929 multiple myeloma cells; assay: Apoptosis induction, Caspase 3/7 activity in NCIH929 cells; type: cell-based
[3] = tested on: germinal center B-cell like DLBCL lines; assay: Anti-cancer activity in GCB-DLBCL cell lines; type: cell-based; settings: six of eleven responsive, read-out: mean IC50 amongst the responsive lines
[4] = tested on: RPMI-8226 multiple myeloma tumors; settings: Combination
DL-40 ALCL tumors = assay: DL-40 ALCL xenograft efficacy (Example 18); type: in vivo, mice; settings: PO daily for 21 days
Method: A xenograft study was conducted in female NOD SCID mice bearing DL-40 ALCL tumors.
(§1) Data are expressed as MTV±SEM.

[5] = tested on: Caspase 3/7 activity in TMD8 cells; assay: Apoptosis induction, Caspase 3/7 activity in TMD8 cells
[6] = biological target: T1, cereblon-NanoLuc fusion protein in 293T cells (Homo sapiens, UniProt Q96SW2); assay: In-cell cereblon competition (NanoBRET tracer displacement); type: cell-based; settings: 2 hours at 37° C.; read-out: IC50, 50% of the tracer displaced
T1 construct: expressed in transfected cells; host or cells: 293T cells, lentiviral

[7] = tested on: multiple myeloma cell lines; assay: Anti-cancer activity in a panel of multiple myeloma cell lines; type: cell-based; settings: eight of twelve were responsive, read-out: mean IC50 among responsive lines
cereblon-DDB1 = cereblon-DDB1 (Homo sapiens, UniProt Q96SW2); assay: Fluorescent polarization: probe displacement from purified cereblon-DDB1; type: binding; settings: competition with Alexa-647 based fluorescence probe
Method: Columns 23 and 24 are reserved for 0% (5 nM probe) and 100% controls (protein at high concentration with 5 nM probe), respectively. […] Plates were read on an Envision plate reader with appropriate FP filter sets.

MM.1S = assay: Anti-proliferative activity, 96 hours; settings: Homo sapiens, MM1.S
[8] = tested on: cutaneous T-cell lymphoma (CTCL) cell lines; assay: Anti-cancer activity in CTCL cell lines; type: cell-based; settings: three of four cell lines tested were responsive, read-out: mean IC50 among the responsive lines
TMD8 = assay: Anti-proliferative activity, 96 hours; settings: Homo sapiens, TMD8, 96 h
KI-JK ALCL tumors = assay: KI-JK ALCL xenograft efficacy (Example 20); type: in vivo, mice; settings: 100 μg/kg PO daily for 21 days
Method: A xenograft study was conducted in female NOD SCID mice bearing KI-JK ALCL tumors.
as §1

[9] = tested on: REC1 mantle cell lymphoma tumors; assay: REC1 mantle cell lymphoma xenograft, balb/c nude mice; type: in vivo
Method: A xenograft study was conducted in female balb/c nude mice bearing REC1 mantle cell lymphoma tumors.
Statistical analysis was performed using two-way analysis of variance (ANOVA). Data are expressed as MTV±SEM.

`O=C1CC[C@H](N2C(=O)c3cccc4c(Cc5ccc(CN6CCOCC6)cc5)ccc2c34)C(=O)N1` (single isomer, unassigned) [Compound 1] was tested, and the “more active than pomalidomide” value [1] was “more than 5,000 fold”, the “Maximum caspase 3/7 activity” value ([2]; 72 hours) was > 2 fold and the EC50 ([2]; Homo sapiens, NCI-H929, 72 h, read-out: EC50, caspase 3/7 activity) was 0.58 nM. The IC50 [3] was 12 nM, the “Median Survival” value ([4]; Compound 1 10 μg/kg PO daily, Dexamethasone 5000 μg/kg IV once a week) was 33 and the “Statistical Significance Compared to Vehicle” value ([4]; survival, Logrank, Compound 1 10 μg/kg, Dexamethasone 5000 μg/kg) was 0.007. For the same compound, the “tumor volume versus pomalidomide” value (DL-40 ALCL tumors) was “more successful at decreasing tumor volume than pomalidomide”, the “Maximum caspase 3/7 activity” value ([5]; 48 hr) was > 8 fold and the “activity level of caspase-3 and caspase-7 increased” value ([5]; FIG. 51) was “more than 800%”. For the same compound, the EC50 ([5]; Homo sapiens, TMD8, 48 h, read-out: EC50, caspase 3/7 activity) was 2.7 nM, the IC50 [6] was 0.4 nM and the IC50 [7] was 0.3 nM. It also gave a Kd (cereblon-DDB1) of 0.9 nM, an IC50 (MM.1S) of 0.036 nM and an IC50 [8] of 30 nM. For the same compound, the IC50 (TMD8) was 0.078 nM, the tumor volume (KI-JK ALCL tumors) was “reduced tumor volume” and the “Statistical Significance Compared to Vehicle” value ([9]; 30 μg/kg PO daily) was 0.04. For the same compound, the “Statistical Significance Compared to Vehicle” value ([9]; 100 μg/kg PO daily) was 0.04 and the tumor volume ([9]; Compound 1 10, 30, or 100 μg/kg, pomalidomide 3000 μg/kg, 18 days) was “decreased”.
